Assay results published in US9957271B2, “Substituted bicyclic aza-heterocycles and analogues as sirtuin modulators” (GlaxoSmithKline, LLC, priority 2012, dated 2018).
Where two headings read alike, the source gives them in different places.

Molecular target: T1, SIRT1 (Homo sapiens, UniProt Q96EB6)
T1 sequence (Q96EB6 1-747): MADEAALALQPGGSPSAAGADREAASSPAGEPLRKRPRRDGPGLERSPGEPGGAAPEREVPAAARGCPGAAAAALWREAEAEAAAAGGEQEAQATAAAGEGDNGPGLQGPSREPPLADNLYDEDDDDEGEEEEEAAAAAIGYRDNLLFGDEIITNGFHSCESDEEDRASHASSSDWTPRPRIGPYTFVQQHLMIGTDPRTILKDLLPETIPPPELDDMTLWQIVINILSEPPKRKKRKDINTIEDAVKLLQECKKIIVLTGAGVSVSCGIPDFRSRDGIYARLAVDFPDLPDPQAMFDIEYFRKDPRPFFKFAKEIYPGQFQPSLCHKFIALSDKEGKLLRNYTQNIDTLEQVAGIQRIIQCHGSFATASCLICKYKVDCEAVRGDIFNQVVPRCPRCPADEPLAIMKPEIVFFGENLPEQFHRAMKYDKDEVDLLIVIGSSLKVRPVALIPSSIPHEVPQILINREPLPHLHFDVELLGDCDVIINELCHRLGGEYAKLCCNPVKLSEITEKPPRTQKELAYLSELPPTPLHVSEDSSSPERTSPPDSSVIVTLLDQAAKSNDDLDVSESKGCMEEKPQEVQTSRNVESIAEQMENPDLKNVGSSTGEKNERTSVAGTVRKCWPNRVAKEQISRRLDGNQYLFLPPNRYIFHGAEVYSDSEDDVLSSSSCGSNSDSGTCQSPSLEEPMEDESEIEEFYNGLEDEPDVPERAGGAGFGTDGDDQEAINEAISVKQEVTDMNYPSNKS
Assay: TAMRA based mass spectrometry assay of SIRT1 activity
Assay type: biochemical
Conditions: for Emax: read-out: TAMRA % Fold Act
Source text: Mass spectrometry based assays were used to identify modulators of SIRT1 activity. The TAMRA based assay utilized a peptide having 20 amino acid residues as follows: Ac-EE-K(biotin)-[…](Ac)NleSTEG-K(5TMR)-EE-NH2 (SEQ ID NO: 1), wherein K(Ac) is an acetylated lysine residue and Nle is a norleucine. The peptide was labeled with the fluorophore 5TMR (excitation 540 nm/emission 580 nm) at the C-terminus. The sequence of the peptide substrate was based on p53 with several modifications. In addition, the methionine residue naturally present in the sequence was replaced with the norleucine because the methionine may be susceptible to oxidation during synthesis and purification. The Trp based assay utilized a peptide having an amino acid residues as follows: Ac-R-H-K-K(Ac)-W-NH2 (SEQ ID NO: 2).
The TAMRA based mass spectrometry assay was conducted as follows: 0.5 μM peptide substrate and 120 μM βNAD^+ was incubated with 10 nM SIRT1 for 25 minutes at 25° C. in a reaction buffer (50 mM Tris-acetate pH 8, 137 mM NaCl, 2.7 mM KCl, 1 mM MgCl2, 5 mM DTT, 0.05% BSA). The SIRT1 protein was obtained by cloning the SirT1 gene into a T7-promoter containing vector, which was then transformed and expressed in BL21(DE3) bacterial cells. Test compound was added at varying concentrations to this reaction mixture and the resulting reactions were monitored. After the 25 minute incubation with SIRT1, 10 μL of 10% formic acid was added to stop the reaction. The resulting reactions were sealed and frozen for later mass spec analysis. Determination of the amount of deacetylated substrate peptide formed (or, alternatively, the amount of O-acetyl-ADP-ribose (OAADPR) generated) by the sirtuin-mediated NAD-dependent deacetylation reaction allowed for the precise measurement of relative SIRT1 activity in the presence of varying concentrations of the test compound versus control reactions lacking the test compound.
A control for inhibition of sirtuin activity was conducted by adding 1 μL of 500 mM nicotinamide as a negative control at the start of the reaction (e.g., permits determination of maximum sirtuin inhibition). A control for activation of sirtuin activity was conducted using 10 nM of sirtuin protein, with 1 μL of DMSO in place of compound, to determine the amount of deacetylation of the substrate at a given time point within the linear range of the assay. This time point was the same as that used for test compounds and, within the linear range, the endpoint represents a change in velocity.
For the above assay, SIRT1 protein was expressed and purified as follows. The SirT1 gene was cloned into a T7-promoter containing vector and transformed into BL21(DE3). The protein was expressed by induction with 1 mM IPTG as an N-terminal His-tag fusion protein at 18° C. overnight and harvested at 30,000×g. Cells were lysed with lysozyme in lysis buffer (50 mM Tris-HCl, 2 mM Tris[2-carboxyethyl]phosphine (TCEP), 10 μM ZnCl2, 200 mM NaCl) and further treated with sonication for […] for complete lysis. The protein was purified over a Ni-NTA column (Amersham) and fractions containing pure protein were pooled, concentrated and run over a sizing column (Sephadex S200 26/60 global). The peak containing soluble protein was collected and run on an Ion-exchange column (MonoQ). Gradient elution (200 mM-500 mM NaCl) yielded pure protein. This protein was concentrated and dialyzed against dialysis buffer (20 mM Tris-HCl, 2 mM TCEP) overnight. The protein was aliquoted and frozen at −80° C. until further use.

[1] = TAMRA assay, concentration giving 150% activation of SIRT1
[2] = TAMRA assay, percent maximum fold activation
[3] = concentration of test compound giving 150% activation of SIRT1, TAMRA peptide substrate
[4] = percent maximum fold activation of SIRT1, TAMRA peptide substrate
[5] = TAMRA peptide substrate, concentration giving 150% activation of SIRT1
[6] = TAMRA peptide substrate, percent maximum fold activation

Structure (SMILES)	TAMRA EC1.5 (μM) [1]	Emax [2] [%]	TAMRA EC1.5 (μM) [3]	Emax [4] [%]	also measured
O=C(Nc1cccc(N2CCOCC2)n1)c1cnc2ccc(-c3ccccc3OCC(O)CO)nn12 (centres unmarked) [Compound 367, 6-(2-(2,3-dihydroxypropoxy)phenyl)-N-(6-morpholinopyridin-2-yl)imidazo[1,2-b]pyridazine-3-carboxamide]	A (EC1.5<1 μM)	≥ 350	–	–	–
O=C(Nc1cccc(N2CCOCC2)n1)c1cnc2ccc(-c3c(F)cccc3F)nn12 [Compound 168]	–	–	A (EC1.5<1 μM)	≥ 350	–
O=C(Nc1ccncc1)c1cnc2ccc(-c3c(F)cccc3F)nn12 [Compound 166]	–	–	C (EC1.5>25 μM)	< 350	–
Cc1nc2ccc(-c3ccccc3Cl)nn2c1NC(=O)c1cccc(N2CCOCC2)n1 [Compound 355]	A (EC1.5<1 μM)	≥ 350	–	–	–
Cc1nc2c(C)cc(-c3ccccc3C(F)(F)F)nn2c1C(=O)Nc1cccc(N2CC3(COC3)C2)n1 [Compound 562]	–	–	–	–	TAMRA EC1.5 [5]: A (EC1.5<1 μM); Emax [6]: ≥ 350%
O=C(Nc1ccncc1)c1cnc2ccc(-c3ccccc3F)nn12 [Compound 136]	–	–	B (EC1.5 1-25 μM)	< 350	–
Cc1nc2ccc(-c3ccccc3C(F)(F)F)nn2c1C(=O)Nc1ccc(F)cn1 [Compound 465]	–	–	–	–	TAMRA EC1.5 [5]: A (EC1.5<1 μM); Emax [6]: ≥ 350%
O=C(Nc1cccnc1)c1cnc2ccc(-c3ccccc3C(F)(F)F)nn12 [Compound 108]	–	–	B (EC1.5 1-25 μM)	< 350	–
O=C(Nc1ccncn1)c1ncn2ccc(-c3ccccc3C(F)(F)F)nc12 [Compound 452]	–	–	–	–	TAMRA EC1.5 [5]: A (EC1.5<1 μM); Emax [6]: ≥ 350%
Cc1nc2ccc(-c3ccccc3C(F)(F)F)nn2c1NC(=O)c1ncccn1 [Compound 378]	B (EC1.5 1-25 μM)	≥ 350	–	–	–
O=C(Nc1ccncn1)c1cnc2ccc(-c3cccc(C(F)(F)F)c3)nn12 [Compound 18]	–	–	B (EC1.5 1-25 μM)	< 350	–
O=C(Nc1nc(CN2CCOCC2)cs1)c1cnc2ccc(-c3cc(F)cc(F)c3)nn12 [Compound 46]	–	–	B (EC1.5 1-25 μM)	< 350	–
Cc1cc(C)nc(NC(=O)c2c(O)nc3ccc(-c4ccccc4C(F)(F)F)nn23)c1 [Compound 365]	B (EC1.5 1-25 μM)	< 350	–	–	–
CS(=O)(=O)c1ccccc1-c1ccc2ncc(C(=O)Nc3ccccn3)n2n1 [Compound 188]	–	–	C (EC1.5>25 μM)	< 350	–
O=C(Nc1ccncc1)c1cnc2ccc(-c3cccc(F)c3Cl)nn12 [Compound 181]	–	–	B (EC1.5 1-25 μM)	< 350	–
O=C(Nc1ccnc(N2CCOCC2)c1)c1cnc2ccc(-c3ccccc3C(F)F)nn12 [Compound 39]	–	–	A (EC1.5<1 μM)	≥ 350	–
Cc1cc(C)nc(NC(=O)c2cnc3c(C)c(C)c(-c4ccccc4C(F)(F)F)nn23)c1 [Compound 228]	A (EC1.5<1 μM)	≥ 350	–	–	–
O=C(Nc1ccnc(N2CCC2)c1)c1cnc2ccc(-c3ccccc3Cl)nn12 [Compound 96]	–	–	A (EC1.5<1 μM)	≥ 350	–
N#Cc1ccccc1-c1ccc2ncc(C(=O)Nc3cccc(N4CCOCC4)n3)n2n1 [Compound 191]	–	–	A (EC1.5<1 μM)	< 350	–
Cc1ncccc1-c1ccc2ncc(C(=O)Nc3cccc(N4CCOCC4)n3)n2n1 [Compound 58]	–	–	B (EC1.5 1-25 μM)	< 350	–
O=C(Nc1ccccn1)c1cnc2ccc(-c3c(F)cccc3Cl)nn12 [Compound 162]	–	–	B (EC1.5 1-25 μM)	< 350	–
Cc1cc(NC(=O)c2cnc3ccc(-c4ccccc4Cl)nn23)ccn1 [Compound 259]	B (EC1.5 1-25 μM)	≥ 350	–	–	–
O=C(Nc1cnc2ccc(-c3ccccc3C(F)(F)F)nn12)c1ccncn1 [Compound 90]	–	–	A (EC1.5<1 μM)	≥ 350	–
Cc1cccc(NC(=O)c2cnc3ccc(-c4cccc(OCC(O)CO)c4)nn23)n1 (centres unmarked) [Compound 416]	–	–	–	–	TAMRA EC1.5 [5]: A (EC1.5<1 μM); Emax [6]: ≥ 350%
Cc1cnc(C(=O)Nc2cnc3cc(C)c(-c4ccccc4C(F)(F)F)nn23)s1 [Compound 447]	–	–	–	–	TAMRA EC1.5 [5]: A (EC1.5<1 μM); Emax [6]: ≥ 350%
Cc1cc(NC(=O)c2c(C)nc3c(C)cc(-c4ccccc4C(F)(F)F)nn23)cc(C)n1 [Compound 432]	–	–	–	–	TAMRA EC1.5 [5]: A (EC1.5<1 μM); Emax [6]: ≥ 350%
COc1nccc(NC(=O)c2c(C)nc3ccc(-c4ccccc4OC(F)(F)F)nn23)n1 [Compound 477]	–	–	–	–	TAMRA EC1.5 [5]: A (EC1.5<1 μM); Emax [6]: ≥ 350%
Cc1ccc(NC(=O)c2cnc3ccc(-c4ccccc4OC(F)(F)F)nn23)nn1 [Compound 396]	A (EC1.5<1 μM)	≥ 350	–	–	–
O=C(Nc1cccc(CN2CCOCC2)n1)c1cnc2ccc(-c3cccc(F)c3Cl)nn12 [Compound 180]	–	–	B (EC1.5 1-25 μM)	≥ 350	–

Now from value to compound, other results behind:

TAMRA EC1.5 (μM) [1]	Emax [2] [%]	TAMRA EC1.5 (μM) [3]	Emax [4] [%]	Structure (SMILES)	also measured
A (EC1.5<1 μM)	≥ 350	–	–	Cc1nc2ccc(-c3ccccc3OC[C@H](O)CO)nn2c1C(=O)Nc1ccc(F)cn1 [Compound 819]	–
A (EC1.5<1 μM)	≥ 350	–	–	O=C(Nc1cc(O)ncn1)c1cnn2ccc(-c3ccccc3OC(F)(F)F)nc12 [Compound 711]	–
A (EC1.5<1 μM)	< 350	–	–	COCCOc1cc(NC(=O)c2cnc3c(C)cc(-c4ccccc4C(F)(F)F)nn23)ncn1 [Compound 662]	–
A (EC1.5<1 μM)	≥ 350	–	–	Cc1nc2c(N3CCOCC3)cc(-c3ccccc3C(F)(F)F)nn2c1C(=O)Nc1cccnn1 [Compound 738, 2-methyl-8-morpholino-N-(pyridazin-3-yl)-6-(2-(trifluoromethyl)phenyl)imidazo[1,2-b]pyridazine-3-carboxamide]	–
A (EC1.5<1 μM)	≥ 350	–	–	CCOc1ccc(NC(=O)c2cnn3ccc(-c4ccccc4C(F)(F)F)nc23)nn1 [Compound 658]	–
A (EC1.5<1 μM)	≥ 350	–	–	Cc1cc(NC(=O)c2cnn3ccc(-c4ccccc4C(F)(F)F)nc23)ccn1 [Compound 619]	–
A (EC1.5<1 μM)	< 350	–	–	CCOc1ccc(NC(=O)c2c(C)nc3ccc(-c4ccccc4Cl)nn23)nn1 [Compound 744]	–
B (EC1.5 1-25 μM)	< 350	–	–	Cc1cc(C)c(NC(=O)c2cnn3ccc(-c4ccccc4C(F)(F)F)nc23)cn1 [Compound 687]	–
